Test results: ChEMBL document CHEMBL1201862, “PubChem BioAssay data set” (2004)
Where a name gives a salt, the structure may show the parent alone. The source made the active and inactive calls.

Legend:
INS1 = assay: beta cell apoptosis inhibitors, cytokine rescue, dose response, luminescence, retest (AID 449756); type: functional, cell-based; conditions: Rattus norvegicus;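 note: cell death triggered by IL-1 beta plus TNF-alpha plus IFN-gamma mixture; protective hits raise ATP signal compared with cytokine alone wells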
Protein Wnt-3a = Protein Wnt-3a (Mus musculus, UniProt P27467); assay: Wnt3a-driven reporter signaling inhibition, dose response, selectivity assay for Gli-SUFU antagonist project, Wnt-LIGHT cells, luminescence (AID 651570); type: functional; conditions: read-out: IC50_Mean;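 note: Wnt-LIGHT reporter cells stimulated with conditioned medium from Wnt3a-producing cells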
[1] = AlphaScreen signal interference compounds, dose response, artefact control for ARNT-TACC3 interaction inhibitor project, biochemical, luminescence, cherry-pick (AID 651705); type: functional;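 note: AlphaScreen bead proximity signal that flags compounds interfering with the detection technology; potency reflects signal decrease which marks the compound as an assay artifact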
P388 = assay: cells; type: functional; conditions: Mus musculus
P388/ADR = assay: cells; type: functional; conditions: Mus musculus
SN12K1 = assay: cells; type: functional; conditions: Homo sapiens
HEK293 [2] = assay: NOD2 signaling inhibitors in MDP-stimulated cells, cell-based, uHTS, luminescence (AID 2001); type: functional; conditions: Homo sapiens
HEK293 [3] = assay: cells; type: functional, cell-based; conditions: Homo sapiens
HEK293 [4] = assay: NOD1 signaling inhibitors, primary screen, cell-based, luminescence, uHTS (AID 1578); type: functional; conditions: Homo sapiens
HEK293 [5] = assay: cells; type: functional, cell-based; conditions: Homo sapiens; remark: listed apart in the source
[6] = HEp-2 cell cytotoxicity, dose response, cytotoxicity control for RSV inhibitor project, HTS (AID 2410); type: functional; conditions: human respiratory syncytial virus
[7] = target: T1, E3 ubiquitin-protein ligase XIAP (Homo sapiens, UniProt P98170); assay: Counter Screen using XIAP-Bir3 for Chemical Antagonists of Bir1/2 domains of IAP-family anti-apoptotic proteins. [Related pubchem assays (depositor defined):AID1018, AID1449, AID1514, AID1638, AID1749, AID1750, AID488957, AID488963]
[8] = target: T1, E3 ubiquitin-protein ligase XIAP; assay: XIAP antagonists, biochemical, IAP family, fluorescence polarization (AID 1018); type: functional
[9] = target: T2, Carboxy-terminal domain RNA polymerase II polypeptide A small phosphatase 1 (Homo sapiens, UniProt Q9GZU7); assay: inhibitors of CTDSP1, concentration-response testing, biochemical assay, absorbance-based, actives from ultra-high-throughput screening (AID 540297); type: functional
T2 sequence (Q9GZU7 whole entry): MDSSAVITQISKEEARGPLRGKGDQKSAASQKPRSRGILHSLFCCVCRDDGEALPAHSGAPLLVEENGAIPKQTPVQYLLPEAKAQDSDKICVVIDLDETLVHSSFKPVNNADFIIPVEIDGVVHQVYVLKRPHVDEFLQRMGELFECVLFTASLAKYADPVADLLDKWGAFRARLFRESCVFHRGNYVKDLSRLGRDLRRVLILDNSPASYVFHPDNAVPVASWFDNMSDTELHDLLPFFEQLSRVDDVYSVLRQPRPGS

[10] = inhibitors of clade B AD8 Env fusion, dose response, cell-based, cherry-pick (AID 652062); type: functional;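 note: luciferase signal from cell-cell fusion driven by HIV-1 clade B AD8 Env; potency is for inhibitors of fusion seen as a drop in luminescence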
[11] = inhibitors of HIV Env-driven cell fusion, dose response, cherry-pick (AID 652057); type: functional, cell-based
Nonstructural protein 1 = Nonstructural protein 1 (Influenza A virus, UniProt Q194T2); type: functional, Influenza A virus (A/California/07/2009(H1N1))
[12] = CEM21 lymphoblast cell cytotoxicity, dose response, cytotoxicity control for viral fusion inhibitor project, CellTiter-Glo luminescence, cherry-picked (AID 652042); type: functional, cell-based;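 note: potency for signal decrease meaning cytotoxicity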
HEK293 [13] = assay: inhibitors of LMP1-driven NF-kB reporter, dose response, cell-based, HEK293, luciferase, cherry-pick (AID 588343); type: functional; conditions: Homo sapiens
[14] = target: T3, Rac GTPase-activating protein 1 (Homo sapiens, UniProt Q9H0H5); assay: MgcRacGAP GTPase-activating activity inhibitors, confirmation, biochemical, ADP Hunter fluorescence, primary and confirmatory (AID 624330); type: functional
T3 sequence (Q9H0H5 whole entry): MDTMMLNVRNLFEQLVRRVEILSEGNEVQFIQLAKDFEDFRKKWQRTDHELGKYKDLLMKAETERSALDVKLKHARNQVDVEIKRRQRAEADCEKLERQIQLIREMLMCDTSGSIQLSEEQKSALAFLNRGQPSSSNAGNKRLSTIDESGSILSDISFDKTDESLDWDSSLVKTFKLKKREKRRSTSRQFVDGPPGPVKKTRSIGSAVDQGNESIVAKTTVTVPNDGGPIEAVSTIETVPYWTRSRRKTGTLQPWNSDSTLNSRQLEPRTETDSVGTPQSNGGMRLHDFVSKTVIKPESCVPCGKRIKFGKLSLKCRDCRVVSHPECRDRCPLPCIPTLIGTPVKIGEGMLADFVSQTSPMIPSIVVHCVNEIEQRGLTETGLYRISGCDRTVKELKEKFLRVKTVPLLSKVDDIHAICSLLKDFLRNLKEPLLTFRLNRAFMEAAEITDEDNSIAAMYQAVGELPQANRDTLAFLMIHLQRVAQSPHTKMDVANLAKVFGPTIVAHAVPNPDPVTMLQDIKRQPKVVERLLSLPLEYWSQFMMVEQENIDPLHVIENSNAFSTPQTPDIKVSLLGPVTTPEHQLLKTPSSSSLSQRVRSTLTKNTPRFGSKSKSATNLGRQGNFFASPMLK

[15] = target: T4, High affinity choline transporter 1 (Homo sapiens, UniProt Q9GZV3); assay: CHT inhibitors, dose response, cell-based, 5-point CRC, membrane potential dye (AID 504840); type: functional
T4 sequence (Q9GZV3 whole entry): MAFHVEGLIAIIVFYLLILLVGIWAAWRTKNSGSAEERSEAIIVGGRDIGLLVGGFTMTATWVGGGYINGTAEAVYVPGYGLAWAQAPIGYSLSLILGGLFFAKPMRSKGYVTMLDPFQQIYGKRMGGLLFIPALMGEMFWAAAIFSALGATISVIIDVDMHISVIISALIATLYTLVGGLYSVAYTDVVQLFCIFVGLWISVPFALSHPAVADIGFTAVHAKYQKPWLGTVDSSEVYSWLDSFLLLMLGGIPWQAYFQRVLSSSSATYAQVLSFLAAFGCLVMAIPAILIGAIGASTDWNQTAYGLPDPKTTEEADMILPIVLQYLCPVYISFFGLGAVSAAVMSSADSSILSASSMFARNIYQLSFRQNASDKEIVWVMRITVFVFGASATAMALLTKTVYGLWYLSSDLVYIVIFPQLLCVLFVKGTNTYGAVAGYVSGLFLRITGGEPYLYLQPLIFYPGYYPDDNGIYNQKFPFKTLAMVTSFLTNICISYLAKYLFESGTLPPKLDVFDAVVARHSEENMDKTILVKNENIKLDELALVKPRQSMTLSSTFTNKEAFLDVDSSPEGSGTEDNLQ

Cytochrome P450 2C9 = Cytochrome P450 2C9 (Homo sapiens, UniProt P11712)
SUMO-activating enzyme = SUMO-activating enzyme (Homo sapiens, UniProt Q9UBT2); assay: SUMOylation inhibitor hit validation, confirmation, SUMOylation inhibitor project, biochemical, AlphaScreen (AID 2018); type: functional
Cytochrome P450 3A4 = Cytochrome P450 3A4 (Homo sapiens, UniProt P08684); conditions: Potency;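 note: confirmatory qHTS run detecting inhibitors and substrates of CYP3A4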
[16] = microbe, parasite or virus in culture; type: functional; conditions: Mycobacterium tuberculosis
[17] = inhibitors of intracellular T. cruzi replication, confirmation, NIH3T3 host cells, beta-gal luminescence (AID 2044); type: functional, cell-based;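 note: intracellular parasites grown in NIH/3T3 mouse fibroblasts as host cells; luminescent beta-galactosidase reporter signal from transgenic T. cruzi replicating inside host cells; inhibitors lower the luminescence signal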
[18] = cytotoxicity toward NIH3T3 fibroblasts, dose response, counter-screen, cell-based, ATP luminescence, mouse fibroblasts (AID 2010); type: functional;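 note: cells exposed to compound for about 90 hours before reading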
H9c2 = assay: cells; type: functional, cell-based; conditions: Rattus norvegicus, H9c2, Myocardium;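 note: confirmatory concentration-response retest of ultra-high-throughput screening hits for modulation of myocardial damage; cell death induced by hydrogen peroxide oxidative stress; compound pretreatment for 60 min then peroxide exposure for 2 h; potency is for protecting the cells against peroxide damage rather than for killing them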
Estrogen receptor = target: T5, Estrogen receptor (Homo sapiens, UniProt P03372);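 note: potency for inhibiting coactivator peptide recruitment to the receptor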
T5 sequence (P03372 whole entry): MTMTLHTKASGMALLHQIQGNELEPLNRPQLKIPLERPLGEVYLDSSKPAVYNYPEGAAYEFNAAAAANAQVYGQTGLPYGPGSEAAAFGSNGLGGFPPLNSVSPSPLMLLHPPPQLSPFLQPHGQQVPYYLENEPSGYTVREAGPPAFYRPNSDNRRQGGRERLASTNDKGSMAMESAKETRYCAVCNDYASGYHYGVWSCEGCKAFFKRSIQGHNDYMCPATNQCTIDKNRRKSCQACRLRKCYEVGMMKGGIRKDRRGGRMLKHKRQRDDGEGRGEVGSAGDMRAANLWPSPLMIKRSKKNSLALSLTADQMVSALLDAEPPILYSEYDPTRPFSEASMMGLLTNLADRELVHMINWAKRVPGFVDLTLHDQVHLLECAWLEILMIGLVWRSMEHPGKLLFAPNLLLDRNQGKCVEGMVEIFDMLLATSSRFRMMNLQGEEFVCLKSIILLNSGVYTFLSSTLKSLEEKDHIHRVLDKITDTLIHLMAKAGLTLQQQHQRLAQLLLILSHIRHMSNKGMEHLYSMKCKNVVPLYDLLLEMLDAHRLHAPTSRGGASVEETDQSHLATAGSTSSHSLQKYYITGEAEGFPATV

T1 sequence (P98170 whole entry): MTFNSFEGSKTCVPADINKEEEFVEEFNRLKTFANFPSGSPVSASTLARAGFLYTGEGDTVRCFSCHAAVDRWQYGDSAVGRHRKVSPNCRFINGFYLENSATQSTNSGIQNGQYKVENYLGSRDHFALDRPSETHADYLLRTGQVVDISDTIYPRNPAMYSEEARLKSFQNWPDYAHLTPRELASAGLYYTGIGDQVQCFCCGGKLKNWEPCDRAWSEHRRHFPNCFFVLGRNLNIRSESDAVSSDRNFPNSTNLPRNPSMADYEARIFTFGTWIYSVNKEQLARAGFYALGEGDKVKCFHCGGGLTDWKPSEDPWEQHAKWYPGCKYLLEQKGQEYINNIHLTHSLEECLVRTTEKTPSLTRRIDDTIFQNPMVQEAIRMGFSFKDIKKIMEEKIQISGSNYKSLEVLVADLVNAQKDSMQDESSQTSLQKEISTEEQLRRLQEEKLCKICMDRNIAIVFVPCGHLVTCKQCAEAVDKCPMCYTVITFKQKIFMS
Protein Wnt-3a, sequence (P27467 whole entry): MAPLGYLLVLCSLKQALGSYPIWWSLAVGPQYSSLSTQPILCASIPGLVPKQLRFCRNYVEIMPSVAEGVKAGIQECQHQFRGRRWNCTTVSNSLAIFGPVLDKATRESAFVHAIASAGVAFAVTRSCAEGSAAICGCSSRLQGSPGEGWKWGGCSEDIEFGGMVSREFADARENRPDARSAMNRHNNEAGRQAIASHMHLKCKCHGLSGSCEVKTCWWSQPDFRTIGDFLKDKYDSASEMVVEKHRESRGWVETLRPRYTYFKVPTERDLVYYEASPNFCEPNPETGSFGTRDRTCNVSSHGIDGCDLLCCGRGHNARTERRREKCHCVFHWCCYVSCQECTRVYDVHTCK
Cytochrome P450 3A4, sequence (P08684 whole entry): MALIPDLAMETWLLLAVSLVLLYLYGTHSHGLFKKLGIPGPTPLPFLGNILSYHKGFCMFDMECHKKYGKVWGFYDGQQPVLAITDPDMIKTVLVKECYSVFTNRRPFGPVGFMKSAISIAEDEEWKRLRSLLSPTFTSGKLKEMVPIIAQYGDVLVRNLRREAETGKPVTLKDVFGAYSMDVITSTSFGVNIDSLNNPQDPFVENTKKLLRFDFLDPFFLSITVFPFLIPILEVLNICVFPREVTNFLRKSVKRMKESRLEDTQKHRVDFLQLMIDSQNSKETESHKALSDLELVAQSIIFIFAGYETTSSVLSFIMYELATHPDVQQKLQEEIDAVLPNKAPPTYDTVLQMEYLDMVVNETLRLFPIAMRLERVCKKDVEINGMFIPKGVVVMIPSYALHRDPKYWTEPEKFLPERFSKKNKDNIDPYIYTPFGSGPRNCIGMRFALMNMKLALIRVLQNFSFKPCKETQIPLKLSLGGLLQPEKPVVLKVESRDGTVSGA
Cytochrome P450 2C9, sequence (P11712 whole entry): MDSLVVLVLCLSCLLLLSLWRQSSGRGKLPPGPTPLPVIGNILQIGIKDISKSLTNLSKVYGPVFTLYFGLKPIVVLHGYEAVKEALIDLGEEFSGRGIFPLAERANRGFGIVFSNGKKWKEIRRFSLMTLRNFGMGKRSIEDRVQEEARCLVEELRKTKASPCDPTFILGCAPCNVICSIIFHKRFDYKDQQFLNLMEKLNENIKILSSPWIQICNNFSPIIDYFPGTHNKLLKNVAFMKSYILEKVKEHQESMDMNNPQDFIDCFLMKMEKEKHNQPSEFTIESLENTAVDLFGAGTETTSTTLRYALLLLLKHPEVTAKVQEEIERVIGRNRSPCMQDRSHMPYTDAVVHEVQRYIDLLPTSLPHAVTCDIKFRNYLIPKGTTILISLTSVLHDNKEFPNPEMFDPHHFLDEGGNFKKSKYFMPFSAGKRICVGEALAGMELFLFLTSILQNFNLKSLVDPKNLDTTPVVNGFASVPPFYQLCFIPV
SUMO-activating enzyme, sequence (Q9UBE0 whole entry): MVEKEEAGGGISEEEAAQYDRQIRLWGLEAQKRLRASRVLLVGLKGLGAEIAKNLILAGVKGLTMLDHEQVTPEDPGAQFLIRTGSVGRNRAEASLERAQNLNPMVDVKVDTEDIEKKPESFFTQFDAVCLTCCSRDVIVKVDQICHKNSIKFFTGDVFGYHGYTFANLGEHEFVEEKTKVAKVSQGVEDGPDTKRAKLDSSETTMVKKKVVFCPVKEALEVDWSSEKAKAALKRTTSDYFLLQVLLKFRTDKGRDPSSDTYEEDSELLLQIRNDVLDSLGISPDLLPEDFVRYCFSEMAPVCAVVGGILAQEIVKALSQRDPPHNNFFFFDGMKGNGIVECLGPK
SUMO-activating enzyme, sequence (Q9UBT2 whole entry): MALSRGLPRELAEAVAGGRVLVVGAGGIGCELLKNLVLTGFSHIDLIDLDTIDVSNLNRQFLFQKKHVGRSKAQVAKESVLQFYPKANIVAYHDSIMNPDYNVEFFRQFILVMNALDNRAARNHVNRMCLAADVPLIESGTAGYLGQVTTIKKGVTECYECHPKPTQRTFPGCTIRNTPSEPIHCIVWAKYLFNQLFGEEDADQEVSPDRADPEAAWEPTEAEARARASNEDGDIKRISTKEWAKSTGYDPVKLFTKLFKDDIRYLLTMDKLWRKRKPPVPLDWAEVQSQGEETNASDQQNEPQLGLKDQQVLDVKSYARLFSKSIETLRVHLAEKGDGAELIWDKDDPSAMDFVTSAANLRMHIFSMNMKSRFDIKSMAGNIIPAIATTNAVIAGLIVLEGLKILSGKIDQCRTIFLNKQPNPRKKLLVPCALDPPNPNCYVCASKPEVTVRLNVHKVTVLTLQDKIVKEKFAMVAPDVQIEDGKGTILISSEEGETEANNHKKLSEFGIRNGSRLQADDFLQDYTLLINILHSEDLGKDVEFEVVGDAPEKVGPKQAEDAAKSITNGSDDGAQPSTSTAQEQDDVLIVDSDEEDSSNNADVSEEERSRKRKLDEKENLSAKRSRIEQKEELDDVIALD
Nonstructural protein 1, sequence (Q194T2 whole entry, the tested form may be a part): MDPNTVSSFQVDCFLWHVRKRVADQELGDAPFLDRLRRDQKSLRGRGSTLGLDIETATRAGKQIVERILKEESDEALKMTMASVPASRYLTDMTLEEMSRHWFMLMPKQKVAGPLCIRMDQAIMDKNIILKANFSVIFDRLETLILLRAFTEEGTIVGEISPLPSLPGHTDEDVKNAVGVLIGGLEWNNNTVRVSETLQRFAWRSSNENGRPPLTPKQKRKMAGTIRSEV

With `CC1CCCCC1NS(=O)(=O)c1ccc(S(=O)(=O)NCc2ccncc2)cc1` (stereo unspecified) the AC50 (INS1) was 3.4 µM (active) and the IC50 (Protein Wnt-3a) was 1.43 µM (active).
In the case of `COc1cc(OC)cc(C(=O)Nc2nnc(-c3cccnc3)o2)c1`, the AC50 [1] was 97.6 µM (active).
For `O=C(NC(Cc1ccc(Cl)cc1)C(=O)O)c1ccc(I)cc1` (stereo unspecified), the GI50 (P388) was 64.7 µM (inactive), the GI50 (P388/ADR) was 54.8 µM (inactive) and the GI50 (SN12K1) was > 100 µM (inactive).
In the case of `COc1ccc(NS(=O)(=O)c2ccc3oc(SC(C)C(N)=O)nc3c2)cc1` (stereo unspecified), the IC50 (HEK293 [2]) was 20 µM (inactive), the IC50 (HEK293 [3]) was > 20 µM (inactive) and the EC50 (HEK293 [4]) was 6.14 µM (active). For the same compound, the IC50 (HEK293 [5]) was > 20 µM (inactive).
With `COc1ccccc1CCNC(=O)C(=O)NCCC1CCCCN1S(=O)(=O)c1cccs1` (stereo unspecified) the CC50 [6] was 36.7 µM (active) and the IC50 (Protein Wnt-3a) was 12.3 µM (active).
With `S=C(Nc1ccccc1)N1CCC(Cc2ccccc2)CC1` the IC50 (Protein Wnt-3a) was 18 µM (active).
In the case of `CC1CCCN(C(C(=O)Nc2ccc(C(C)C)cc2)c2ccc3c(c2)OCO3)C1` (stereo unspecified), the IC50 [7] was > 100 µM (inactive) and the IC50 [8] was > 100 µM (not active).
For `CC(C)=CC(=O)OC1C2C(C)=CC(=O)C(O)C2(C)C2C3(O)OCC24C(CC(=O)OC14)C(C)C3O` (stereo unspecified), the GI50 (P388) was 0.000946 µM (active), the GI50 (P388/ADR) was 0.102 µM (active) and the GI50 (SN12K1) was 0.02 µM (active).
In the case of `NCC(Cl)C(O)c1c[nH]c(N)n1` (stereo unspecified), the GI50 (P388) was 0.0353 µM (active), the GI50 (P388/ADR) was 0.232 µM (active) and the GI50 (SN12K1) was 0.507 µM (active).
For `CCOc1ncccc1C(=O)OCC(=O)Nc1nnc(-c2ccccc2)o1`, the AC50 [1] was 107 µM (active).
For `O=C(N/N=C/c1ccc2c(c1)OCO2)c1cc(-c2ccco2)nc2ccccc12`, the IC50 [9] was 10.8 µM (active).
For `O=C(Cn1cnc2c(nnn2-c2ccccc2)c1=O)NCc1ccc(F)cc1`, the IC50 [9] was 6.76 µM (active).
For `C/C(CC(=O)NC1CCCCC1)=N\NC(=O)Cc1ccc(-c2ccccc2)cc1`, the IC50 [9] was 7.87 µM (active).
With `Oc1ccc(C=NNc2ccccn2)c(O)c1` the AC50 [10] was 5.5 µM (active), the AC50 [11] was 8.53 µM (active) and the IC50 (Nonstructural protein 1) was 2.71 µM (active). For the same compound, the AC50 [12] was 8.15 µM (active), the AC50 (HEK293 [13]) was 10.4 µM (active) and the IC50 [14] was 27 µM (active).
In the case of `COc1cc(/C=C(/C(=O)c2cccs2)c2nc3ccccc3[nH]2)ccc1O`, the IC50 (HEK293 [2]) was 4.02 µM (active), the IC50 (HEK293 [3]) was 2.96 µM (active) and the AC50 (INS1) was 18 µM (active). For the same compound, the EC50 (HEK293 [4]) was 12.1 µM (active) and the IC50 (HEK293 [5]) was > 20 µM (inactive).
For `Cc1cccc(CCNC(=O)C2CCCN(c3ncnc4c3nc3n4CCCCC3)C2)c1` (stereo unspecified), the IC50 [15] was 11.8 µM (active).
With `CC(=O)Nc1ccc(NC(=O)Cn2c(-c3ccc(F)cc3)cnc2SCC(=O)Nc2c(C)cccc2C)cc1` the AC50 (Cytochrome P450 2C9) was 17.8 µM (inconclusive) and the IC50 (SUMO-activating enzyme) was 61.6 µM (active).
In the case of `COC(=O)[C@H]1C[C@H]2CC[C@H](O)C[C@H]2N1CC1CC1`, the AC50 (Cytochrome P450 3A4) was 25.1 µM (inconclusive).
For `O=C(Nc1ccccc1-c1nnn(CC(=O)N2CCCc3ccccc32)n1)c1ccc(Cl)cc1`, the IC50 [7] was > 100 µM (inactive) and the IC50 [8] was > 100 µM (not active).
With `COc1ccc(S(=O)(=O)N2CCOC2CNC(=O)C(=O)NCCc2c[nH]c3ccccc23)cc1` (stereo unspecified) the IC50 [7] was > 100 µM (inactive) and the IC50 [8] was > 100 µM (not active).
In the case of `COc1cc(C2c3cc4c(cc3[C@@H](Nc3cccc(CO)c3)C3COC(=O)[C@H]23)OCO4)cc(OC)c1O` (stereo partly specified), the GI50 (P388) was < 0.01 µM (active), the GI50 (P388/ADR) was 0.124 µM (active) and the GI50 (SN12K1) was 0.0925 µM (active).
For `c1ccc(CCN2CCN(c3ncnc4c3cnn4-c3ccccc3)CC2)cc1`, the CC50 [16] was > 40 µM (active), the EC50 [17] was 2.38 µM (active) and the IC50 [15] was 30.2 µM (active). The EC50 [18] was > 30 µM (not active).
In the case of `CCCCN1CCCCC1C(=O)Nc1c(C)cccc1C` (stereo unspecified) [BUPIVACAINE HYDROCHLORIDE], the AC50 (Cytochrome P450 3A4) was 31.6 µM (inconclusive).
With `Cc1cc(-c2nn3c(-c4ccccc4)nnc3s2)c2ccccc2n1` the IC50 (H9c2) was > 79 µM (inactive), the IC50 (Estrogen receptor) was 21.6 µM (active) and the IC50 [7] was > 100 µM (inactive). For the same compound, the IC50 [8] was > 100 µM (not active).
